Laboratory results published in patent US5017565A, “Use of sulfated polysaccharides to inhibit pancreatic cholesterol esterase” (priority 1989, dated 1991).
Like-named read-outs stand apart in the source and are kept apart here.

Assays:
Assay type in all cases: biochemical
[1] = target: Human pancreatic cholesterol esterase; assay: Inhibition of cholesteryl 14C-oleate hydrolysis by cholesterol esterase; details: for IC50 cholesterol esterase inhibition: 37° C., fifteen minutes, pH 7.5
[2] = target: human 100 kDa cholesterol esterase; assay: Inhibition of triolein hydrolysis by cholesterol esterase; details: table 3; triolein used instead of cholesterol oleate
Procedure: (§1) Alginic acid from Macrocystis pyrifera (kelp) was dissolved in water at a concentration of 1 mg/ml. This stock solution was used to prepare various polysaccharide concentrations down to 10^-5 mg/ml. Human pancreatic cholesterol esterase was purified as described by Bosner et al., Proc Nat'l. Acad. Sci., 85, 7438 (1988). To measure cholesterol esterase inhibition by alginic acid, 50 μl of cholesterol esterase (10 μg/ml). 75 μl of phosphatidylcholine vesicles containing cholesteryl ^14 C-oleate (1 mM 2,000 CPM/nmole). 25 μl of 100 mM taurocholate, 120 μl of 150 mM Tris. pH 7.5 and 30 μl of test alginic acid solution were incubated at 37° C. for fifteen minutes. The assay was quenched by placing the reaction vessels in a 4° C. ice bath and by adding 0.6 ml of 0.3 N NaOH and 3 ml of benzene/chloroform/methanol (1 0/1.2/0 5). The quenched reactions were vortexed for 30 seconds, centrifuged at 3,000 g for 15 minutes and 1 ml of the upper aqueous phase was added to 7 ml of Aquasol-2 (DuPont) with 0.025 ml of 6 N HCl. These mixtures were vortexed for one minute and counted for ^14 C-oleate The counts were compared to a sample which contained cholesterol esterase but no alginic acid to determine the percentage of inhibition.
(The same assay procedure was used as described in Part I, only triolein was used instead of cholesterol oleate.) As shown in the table below, the IC50 for inhibition of triolein hydrolysis is nearly the same as that for cholesteryl oleate hydrolysis.

cholesterol esterase = assay: Cholesterol esterase inhibition by water extract of baked muffin (stability under baking conditions); details: qualitative statement
Procedure: as §1
The sulfated polysaccharides described here retain their inhibitory activity for prolonged periods at elevated temperatures. […]

[3] = cholesteryl 14C-oleate substrate
[4] = cholesteryl 14C-oleate substrate, molar value assumes a molecular weight (alginic acid 240 kDa, pectin 20 kDa, chitin 300 kDa, cellulose sulfate 500 kDa), read-out: IC50 cholesterol esterase inhibition
[5] = table 3, cholesteryl oleate hydrolysis, read-out: IC50 (nM) Cholesteryl Oleate
[6] = table 2, summary of sulfated polysaccharides, read-out: IC50

| Substance | IC50 cholesterol esterase inhibition [1, 3] | IC50 [1, 4] | Enhancement Factor ([1]; table 1, enhancement of inhibition relative to native alginic acid (fold)) | IC50 [1, 5] | IC50 [2] | IC50 [1, 6] | Retention of inhibitory activity at elevated temperatures / stability under baking conditions (in words) (cholesterol esterase) | Inhibition of cholesterol esterase (in words) ([1]; qualitative statement) |
| --- | --- | --- | --- | --- | --- | --- | --- | --- |
| Alginic acid [reference compound] | 4 µg/mL | 20 nM | 1.0 | 20 nM | 42 nM | – | – | – |
| Cellulose Sulfate | – | 0.02 nM | – | 0.02 nM | 0.06 nM | 0.02 nM | stable under baking conditions | – |
| Chitosan Sulfate | 0.015 µg/mL | 0.03 nM | – | 0.03 nM | 0.16 nM | 0.03 nM | – | – |
| pectin [reference compound] | – | – | – | – | – | – | – | does not inhibit cholesterol esterase |

The remaining substances from weak to strong by IC50 [1, 5], led by results:

| IC50 cholesterol esterase inhibition [1, 3] | IC50 [1, 4] | Enhancement Factor ([1]; table 1, enhancement of inhibition relative to native alginic acid (fold)) | IC50 [1, 5] | IC50 [2] | IC50 [1, 6] | Retention of inhibitory activity at elevated temperatures / stability under baking conditions (in words) (cholesterol esterase) | Inhibition of cholesterol esterase (in words) ([1]; qualitative statement) | Substance |
| --- | --- | --- | --- | --- | --- | --- | --- | --- |
| – | – | – | 0.06 nM | 0.14 nM | 0.06 nM | – | – | Chitin Sulfate |
| – | 0.02 nM | – | 0.02 nM | – | 0.02 nM | – | – | Dextran Sulfate |
